Data published in PMC5354900, “Peptide-guided targeting of GPR55 for anti-cancer therapy” (Oncotarget, 2016).
Positions of bridges follow the written chain, without caps; N, C: chain ends. Residues, ends and D or L forms follow the SMILES beside them. *: point of attachment. FITC = O=C1OC2(c3ccc(O)cc3Oc3cc(O)ccc32)c2ccc(NC(=S)*)cc21; Ahx = NCCCCCC(=O)O

How the values were obtained:
GPR55 (HeLa cells) = assay: FITC-peptide binding to HeLa cells silenced for GPR55 (siRNA, shRNA) or re-expressing HA-GPR55 (FACS); design: species or system human; details: 40 μg/ml, 1 h at 37°C
Protocol: For transient interference of GPR55, HeLa cells were plated at 150,000 cells/6-well plate in growth medium without antibiotics, and 24 h later they were transfected with 75 pmol/well non-targeting #2 siRNA (siNT) or human GPR55-targeting siRNAs (D-00581-05) (siGPR55) (siGENOME, Dharmacon, Chicago, IL, USA), using Lipofectamine 2000, according to the manufacturer instructions. Twenty-four hours later, the cells were detached by trypsinization, plated again at 150,000 cells/6-well plate, and 10 h later they were re-transfected with siNT or with siGPR55. Forty-eight hours later, the cells were analyzed. For stable interference of GPR55, HeLa cells were transfected with 1.7 μg/well OmicsLink shRNA expression clone CSHCTR001-CU6 (shCtrl) or clone HSH022476-3-CU6 (shGPR55) from GeneCopoeia (Rockville, MD, USA), using Lipofectamine 2000, according to the manufacturer instructions. Forty-eight hours after transfection, HeLa clones stably expressing shRNAs were selected in growth medium containing 0.3 μg/ml puromycin.
Wild-type HeLa cells plated at a density of 150,000 cells/6-well plate, or cells stable interfered with shCtrl and shGPR55 plated at a density of 120,000 cells/6-well plate, or HeLa cells transiently interfered (48 h after the first interference) were washed twice with HBSS^++, and incubated with the indicated concentrations of the FITC-labeled peptides for the indicated times at 37°C in 1 ml HBSS^++ plus 0.1% fatty-acid-free BSA and 25 mM HEPES, pH 7.5. Then, the cells were washed twice with PBS plus 0.01% Tween-20, and once with PBS, and incubated for 5 min at 37°C with PBS with 2 mM EDTA, detached by scraping, and resuspended in PBS plus 3% BSA. Cell-associated FITC fluorescence was evaluated using FACS, after addition of 4 μg/ml propidium iodide, to exclude dead cells from the FACS gating. Fluorescence intensity was evaluated as % FITC-positive cells and mean fluorescence, recorded before (for peptide binding) and after (for peptide internalization) addition of 0.2% trypan blue to quench the fluorescence of the extracellular bound peptides.

HA-GPR55 = assay: confocal co-localization of FITC-P1 with HA-GPR55 in HeLa cells; assay type: cell-based, human; details: 40 μg/ml (26.8 μM) FITC-P1, 1 h, live HeLa cells overexpressing HA-GPR55
Protocol: HEK293 or CHO cells were rinsed with PBS, fixed for 10 min at room temperature in 4% (v/v) paraformaldehyde, and permeabilized in 0.02% saponin, 0.5% BSA, and 50 mM ammonium chloride in PBS (blocking solution). Then, the cells were stained with an anti-HA antibody (1:1,000) for 1 h at room temperature for GPR55 visualization, followed by 30 min at room temperature with Alexa488- or Alexa568-conjugated anti-mouse secondary antibodies (1:800), with 33 nM Alexa546-labeled phalloidin (Life Technologies) for filamentous actin visualization, or 2 μg/ml Hoechst (Sigma) for nuclei staining, with all reagents diluted in blocking solution. Then, the cells were washed three times with PBS plus 0.02% Tween-20, and the coverslips were mounted and examined by confocal microscope (LSM 510; Zeiss, Germany), with images acquired using the ZEN 2.1 (black) program (Carl Zeiss Microscopy GmbH 1997-2015). For localization studies of FITC-P1 and GPR55 in live HeLa cells, the cells were incubated with an anti-HA antibody (1:1,000) in PBS plus 3% BSA for 1 h on ice, then washed with PBS, and incubated with an Alexa568-conjugated anti-mouse secondary antibody (1:800) in PBS plus 3% BSA for 45 min on ice. The cells were then incubated with FITC-P1 as reported, fixed for 10 min in 4% (v/v) paraformaldehyde, and examined by confocal microscopy, as above.

[1] = biological target: T1, immunoprecipitated HA-GPR55 (Homo sapiens, UniProt Q9Y2T6); assay: FITC-peptide binding to immunoprecipitated HA-GPR55; details: FITC-P1 40 μg/ml (26.8 μM), 2 h at 37°C; three independent experiments in triplicate
T1 construct: expressed in transfected cells; host or cells: HeLa cells, transient transfection; anti-HA immunoprecipitate on beads
T1 sequence (Q9Y2T6 whole entry): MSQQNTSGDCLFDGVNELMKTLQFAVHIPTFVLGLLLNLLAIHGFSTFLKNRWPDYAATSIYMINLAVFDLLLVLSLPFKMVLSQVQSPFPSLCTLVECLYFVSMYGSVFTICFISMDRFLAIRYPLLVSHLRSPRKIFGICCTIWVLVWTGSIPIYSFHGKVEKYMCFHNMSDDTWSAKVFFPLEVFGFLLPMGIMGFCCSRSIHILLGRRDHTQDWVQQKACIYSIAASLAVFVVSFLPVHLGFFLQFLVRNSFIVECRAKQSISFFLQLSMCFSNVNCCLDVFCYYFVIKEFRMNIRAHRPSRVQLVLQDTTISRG

EHEB cells [2] = assay: annexin-V staining of EHEB cells (FACS); assay type: cell-based, human; details: biotinylated P1 1 μg/ml alone or streptavidin-bound; ML-191 0.5 μM
Text: In parallel, for analysis of apoptosis markers, 200,000 cells/sample were harvested, washed in PBS, stained with fluorescent annexin V using human annexin V-FITC kits (Bender MedSystems GmbH, Vienna, Austria), according to the manufacturer instructions, and analyzed by FACS.

DeFew cells = assay: growth of DeFew cells (cell counting); assay type: cell-based, human; details: ML-191 0.5 μM, 96 h
Protocol: (§1) HEK293 cells were bought in 2012, from the American Type Culture Collection (ATCC catalogue number: CRL-11268), and were grown in monolayers in DMEM supplemented with 10% FBS, 2 mM L-glutamine, 100 U/ml penicillin, and 100 μg/ml streptomycin. HeLa cells were received from Dr. D. Corda, Institute of Protein Biochemistry, CNR, Naples, which were bought in 2006 from the European Collection of Cell Culture (ECACC catalog number: 93021013). Wild-type HeLa cells were maintained in MEM with 10% FBS, 2 mM L-glutamine, 100 U/ml penicillin, 100 μg/ml streptomycin, and nonessential amino acids (i.e., 100 μM glycine, L-alanine, L-asparagine, L-aspartic acid, L-glutamic acid, L-proline, L-serine). The HeLa clones were selected in the presence of 0.3 μg/ml puromycin. CHO cells were received from Dr. D. Corda, and were grown in DMEM supplemented with 10% FBS, 2 mM L-glutamine, 100 U/ml penicillin, 100 μg/ml streptomycin, and nonessential amino acids. EHEB cells are an Epstein-Barr-virus-immortalized cell line that was established from a chronic lymphocytic leukemia patient, and these were purchased from DSMZ (Deutsche Sammlung von Mikroorganismen und Zellkulturen GmbH, Braunschweig, Germany). DeFew cells are a non-Hodgkin lymphoma cell line, and these were obtained from Prof. G. Scala, ‘Magna Graecia’ University of Catanzaro [46–48]. Both of these human B-lymphoblastoid cell lines were maintained in RPMI 1640 with 10% heat-inactivated (30 min at 55°C) FBS, 2 mM L-glutamine, 100 U/ml penicillin, and 100 μg/ml streptomycin, and were routinely tested for BCR expression and anti-IgG stimulation, according to previous studies. All of the cells were grown in a humidified atmosphere of 5% CO2 and at 37°C return.
(§2) The EHEB cell growth rate was evaluated by cell counting. EHEB and DeFew cells were plated into 24-well plates in 400 μl growth medium at a density of 25,000 cells/ml. The cells were grown in the absence and presence of different agents, which were added immediately after cell plating and replenished every 24 h. Every 24 h, the cells were put through independent and blinded counts in triplicate, using a Neubauer cell-counting chamber. After 48 h, the cells were diluted 1:2 with fresh medium and 400 μl were transferred in a new 24-well for the following peptide additions. At 96 h, the cells were counted with 0.2% trypan blue, to determine cell viability.

EHEB cells [3] = assay: growth of EHEB cells (cell counting); assay type: cell-based, human; details: ML-191 0.5 μM, 96 h
Protocol: as §1, §2

Row | SMILES | decrease in binding, siGPR55 relative to siNT (GPR55 (HeLa cells); 50% reduction in GPR55 expression, four independent experiments) [%] | less binding to shGPR55 HeLa clones relative to shCtrl (GPR55 (HeLa cells); 90% decrease in GPR55 mRNA, three independent experiments) [%] | increase in binding on GPR55 re-expression in shGPR55 clones versus empty vector (GPR55 (HeLa cells); three independent experiments) [%] | co-localization with GPR55 (HA-GPR55) | binding to glycosylated versus deglycosylated GPR55 [1] | annexin V cell decoration (EHEB cells [2]) | Cell counts/ml (DeFew cells; replenished every 24 h, DMSO 1053 ±41, means ±SEM, n = 4 in duplicate, p <0.01) | Growth inhibition (DeFew cells; relative to DMSO-treated cells) | Cell counts/ml (EHEB cells [3]; replenished every 24 h, DMSO 801 ±18, means ±SEM, n = 4 in duplicate, p <0.01) | Growth inhibition (EHEB cells [3]; relative to DMSO-treated cells)
1 | CC(C)C[C@@H]1NC(=O)[C@H]([C@@H](C)O)NC(=O)[C@@H]2CCCN2C(=O)[C@H](CO)NC(=O)[C@H](CC(N)=O)NC(=O)[C@H](CCCCN)NC(=O)[C@H](CCCCN)NC(=O)[C@@H](NC(=O)CCCCCNC(=S)Nc2ccc3c(c2)C(=O)OC32c3ccc(O)cc3Oc3cc(O)ccc32)CSSC[C@@H](C(=O)O)NC1=O [FITC-P1] ({FITC-Ahx}-CKKNSPTLC-OH; disulfide 1-9; N-terminus and C-terminus assumed) | 26 | 34 | 25 | distributed at the membrane level, with evident spots of co-localization | bound equally to both glycosylated and deglycosylated GPR55-immunoprecipitates |  |  |  |  | 
2 | Cc1ccc(C2(C(=O)N3CCC(n4nc(-c5ccccc5)oc4=O)CC3)CC2)cc1 [ML-191] |  |  |  |  |  | did not increase annexin V cell decoration, similar to ML-191 | 650 ±51 ×1,000 | (38%) | 578 ±49 ×1,000 | (28%)
